Measured values reported in patent publication US6423853B1, “Continuous ozonolysis of cycloalkenes into ozonides” (E. I. du Pont de Nemours & Comp., priority 2001, dated 2002).

Columns and labels:
[1] = disclosed in Maggiolo patent; cited from earlier work
[2] = solubility in propionic acid; settings: using cyclododecene in the present process
Protocol: A reactor system consisting of a jacketed 1 inch, 10 tray glass Oldershaw column, 250 cc bottom receiver, feed pump, and recycle pump were assembled. The initial feed material consisted of 102 g. of propionic acid solvent and 18 g. of cyclododecene. 120 g. of the initial feed material were charged into the reactor system. The temperature of the jacket on the Oldershaw column was adjusted to 20° C. and a recycle flow of 50 cc/min. was established using the recycle pump. An ClearWater Tech modelM-1500 ozone generator was attached to the system. A carrier gas consisting of 20% oxygen in carbon dioxide was fed to the reactor at 2000 cc/min. The gas exit the ozone generator was measured to contain 0.80% ozone. […] At that point, the additional 18 g. of pure CDDM solution was fed to the top of the column at a rate of 00.15 cc/min. The balance between the ozone and the cyclododecene fed allowed an excess of ozone in the reactor off gas at all times.

Row | SMILES | solubility in isobutyric acid [1] [%] | ozonide solubility in propionic acid [2]
1 | C1=CCCCCCC1 [cyclooctene] | 20 | –
2 | C1CCCCCC2OOC(CCCC1)O2 [ozonide, cyclododecene ozonide] | – | about 27.5%
